The values below come from US3931197A, “Substituted piperidine derivatives” (Richardson-Merrell Inc., priority 1974, dated 1976).

The assay has as its system wheals induced by intradermal injections of 1γ of histamine. In words: reduction by 50% of wheals induced by intradermal injections of histamine in guinea pigs. Format: in vivo. The conditions noted are these: Cavia porcellus, po, 1 h, orally administered one hour prior to intradermal injection of 1γ histamine, read-out: ED50 (amount of compound required to reduce by 50% wheals induced by intradermal injections of histamine). The text has this:
To illustrate the utility of the compounds of this invention the following tabulation indicates the amount of certain representative compounds of this invention required to reduce by 50% wheals induced by intradermal injections of 1γ of histamine into guinea pigs. Each compound was orally administered one hour prior to the histamine injection.
`Cl.O=C(CCCN1CCC(C(O)(c2ccccc2)c2ccccc2)CC1)c1ccc(C2CCCC2)cc1` [4'-Cyclopentyl-4-[4-(α-hydroxy-α-phenylbenzyl)piperidino]-butyrophenone hydrochloride]: the ED50 (in general, the dose that gives a 50% effect, or the effect in half of the subjects) was determined as 2.5 mg/kg.
Consider `Cc1ccc(C(=C2CCN(CCCC(=O)c3ccc(C(C)(C)C)cc3)CC2)c2ccccc2)cc1.Cl` [4'-tert-Butyl-4-[4-[α-(p-tolyl)benzylidene]piperidino]-butyrophenone hydrochloride], for which the ED50 is approximately 10 mg/kg.
In the case of `CC(C)(C)c1ccc(C(=O)CCCN2CCC(C(O)(c3ccccc3)c3ccc(Cl)cc3)CC2)cc1.Cl` (stereo not drawn) [4'-tert-Butyl-4-[4-[α-hydroxy-α-(p-chlorophenyl)benzyl]-piperidino]butyrophenone hydrochloride] it was 27 mg/kg.
As for `Cc1ccc(C(O)(c2ccccc2)C2CCN(CCCC(=O)c3ccc(C(C)(C)C)cc3)CC2)cc1.Cl` (stereo not drawn) [4'-tert-Butyl-4-[4-[α-hydroxy-α-(p-tolyl)benzyl]piperidino]-butyrophenone hydrochloride], the ED50 turned out to be 6 mg/kg.
In the case of `Cl.O=C(CCCN1CCC(C(O)(c2ccccc2)c2ccccc2)CC1)c1ccc2ccccc2c1` [4-[4-(α-Hydroxy-α-phenylbenzyl)piperidino]-1-(2-naphthyl)-butan-1-one hydrochloride], the ED50 came to 3.6 mg/kg.
`CC(C)(C)Cc1ccc(C(=O)CCCN2CCC(C(O)(c3ccccc3)c3ccccc3)CC2)cc1.Cl` [4-[4-(α-Hydroxy-α-phenylbenzyl)piperidino]-4'-neopentyl-butyrophenone hydrochloride]: the ED50 is 0.5 mg/kg.
